Experiment [1] concerns the target T1, IDO1 enzyme in the Hela cell (Homo sapiens, UniProt P14902).
T1 construct: endogenous in cells; host or cells: HeLa cells stimulated with interferon γ (100 ng/ml)
In words: Cell activity: interferon γ-stimulated Hela cells, absorbance of supernatant at 480 nm. In kind it is cell-based. The conditions noted are these: interferon γ 100 ng/ml, 72 hours. As for the experimental part:
(2) Method for Determining Cell Activity
Hela cells were cultured and passaged in a DMEM medium supplemented with antibiotics in a 37° C. CO2 incubator, inoculated into a 96-well plate for overnight culture, then 1 μl of heterocyclic urea compound with appropriate concentration was added to each well, and then 100 μl of interferon γ (final concentration was 100 ng/ml) was added. After the cells were continuously cultured for 72 hours, 70 μl of cell culture supernatant was added to a 96-well V-bottom plate, 5 μl of trichloroacetic acid (6.1 N) was added to each well, incubated at 50° C. for 30 min, then taken out and centrifuged at […] for 10 min. The above centrifuged supernatant was transferred to a 384-well microplate (20 μl/well), then 20 μl of 2% didimethylaminobenzaldehyde acetic acid solution was added to each well, shaken and mixed evenly, then photometric absorption was performed at 480 nm, and values were measured.

A further experiment deals with IDO1 enzyme (Homo sapiens, UniProt P14902). In words: Determination of biochemical activity of IDO1 enzyme (absorbance at 320 nm). The conditions noted are these: room temperature, 3 hours. As for the experimental part:
(1) Method for Determining Biochemical Activity of IDO1 Enzyme
Firstly, 15 μl of buffer solution of sodium hydrogen phosphate (PH:7-8), 5 μl of reaction buffer solution containing a proper amount of IDO-1 enzyme and heterocyclic urea compound prepared by the invention were added into wells of a microplate, mixed evenly, and reacted at room temperature for 3 hours; then a light absorption value at 320 nm wavelength was detected by using Envision Multilabel Reader of PE company, an inhibition rate of the heterocyclic urea compound on the enzyme reaction was calculated according to an absorption ratio, and an IC50 value of the heterocyclic urea compound was calculated through analysis by GraphPad.

A value given as a limit tells only on which side of the number the result lay.

Chain of IDO1 enzyme (P14902 whole entry): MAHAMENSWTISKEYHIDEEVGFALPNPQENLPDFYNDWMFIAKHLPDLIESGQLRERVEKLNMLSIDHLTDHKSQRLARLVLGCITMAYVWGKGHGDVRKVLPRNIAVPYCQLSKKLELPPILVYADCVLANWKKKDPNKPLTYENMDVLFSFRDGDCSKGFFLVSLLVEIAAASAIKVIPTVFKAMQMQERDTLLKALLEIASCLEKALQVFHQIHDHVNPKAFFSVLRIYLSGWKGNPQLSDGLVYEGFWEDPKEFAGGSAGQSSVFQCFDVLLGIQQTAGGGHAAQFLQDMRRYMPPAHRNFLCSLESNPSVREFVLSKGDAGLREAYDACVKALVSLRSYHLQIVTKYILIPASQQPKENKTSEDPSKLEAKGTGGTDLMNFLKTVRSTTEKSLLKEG
T1 sequence (P14902 whole entry): as above

Take `O/N=C(\Nc1ccc(F)c(Cl)c1)c1nocc1NC(=S)Nc1ccccc1` [Embodiment 131, (Z)-1-(4-(N-(3-chloro-4-fluorophenyl)-N′-hydroxyaminoiminomethyl)-isoxazole-3-substituted)-4-(phenyl)thiourea]: the half-inhibitory concentration (IC50) (in experiment [1]; on IDO1 enzyme) was 0.1 to 1 µM each time.
Turning to `O=C(Nc1cocc1/C(=N/O)Nc1ccc(F)c(Br)c1)NC1CC1` [Embodiment 65], the IC50 (in experiment [1]; at IDO1 enzyme) was 0.1 to 1 µM in each case.
For `O=C(Nc1nonc1/C(=N/O)Nc1ccc(F)c(Br)c1)NC1CCNCC1` [Embodiment 11, (Z)-1-(4-(N-(3-bromo-4-fluorophenyl)-N′-hydroxyaminoiminomethyl)-1,2,5-oxadiazole-3-substituted)-3-(piperidine-4-substituted)urea], the IC50 (in experiment [1]; on IDO1 enzyme) was less than 0.001 µM throughout.
With `O=C(Nc1conc1/C(=N/O)Nc1ccc(F)c(Br)c1)NC1CCNCC1` [Embodiment 106], the IC50 (in experiment [1]; at IDO1 enzyme) was less than 0.001 µM in each case.
In the case of `O=C(Nc1cocc1/C(=N/O)Nc1ccc(F)c(Br)c1)Nc1cccc2[nH]ccc12` [Embodiment 73, (Z)-1-(4-(N-(3-bromo-4-fluorophenyl)-N′-hydroxyaminoiminomethyl)-furan-3-substituted)-3-(4-aminoindole)urea], the IC50 (in experiment [1]; against IDO1 enzyme) was 0.1 to 1 µM each time.
As for `O=C(Nc1cocc1/C(=N/O)Nc1ccc(F)c(Br)c1)NC1CCCCC1` [Embodiment 61, (Z)-1-(4-(N-(3-bromo-4-fluorophenyl)-N′-hydroxyaminoiminomethyl)-furan-3-substituted)-3-cyclohexylurea], the IC50 (in experiment [1]; against IDO1 enzyme) was 0.1 to 1 µM throughout.
On to `O=C(Nc1nocc1/C(=N/O)Nc1ccc(F)c(Br)c1)NC1CCCC1` [Embodiment 83, (Z)-1-(4-(N-(3-bromo-4-fluorophenyl)-N′-hydroxyaminoiminomethyl)-isoxazole-3-substituted)-3-(cyclopentyl)urea], for which the 50% inhibitory concentration (IC50) (in experiment [1]; at IDO1 enzyme) was greater than 1 µM in each case.
As to `COc1ccc(NC(=O)Nc2nocc2/C(=N/O)Nc2ccc(F)c(Br)c2)cc1` [Embodiment 79, (Z)-1-(4-(N-(3-bromo-4-fluorophenyl)-N′-hydroxyaminoiminomethyl)-isoxazole-3-substituted)-3-(4-methoxyphenyl)urea], the half-maximal inhibitory concentration (IC50) (in experiment [1]; against IDO1 enzyme) was 0.1 to 1 µM throughout.
Turning to `O=C(Nc1nonc1/C(=N/O)Nc1ccc(F)c(Br)c1)NC1CCCCC1` [Embodiment 7, (Z)-1-(4-(N-(3-bromo-4-fluorophenyl)-N′-hydroxyaminoiminomethyl)-1,2,5-oxadiazole-3-substituted)-3-cyclohexylurea], the 50% inhibitory concentration (IC50) (in experiment [1]; against IDO1 enzyme) was 0.1 to 1 µM each time.
`O=C(Nc1conc1/C(=N/O)Nc1ccc(F)c(Cl)c1)NC1CCCCC1` [Embodiment 114]: the concentration for half-maximal inhibition (IC50) (in experiment [1]; on IDO1 enzyme) was less than 0.001 µM in each case.
Consider `COc1ccc(NC(=O)Nc2nonc2/C(=N/O)Nc2ccc(F)c(Br)c2)c(F)c1` [Embodiment 20, (Z)-1-(4-(N-(3-bromo-4-fluorophenyl)-N′-hydroxyaminoiminomethyl)-1,2,5-oxadiazole-3-substituted)-3-(4-methoxy-2-fluorophenyl)urea], for which the half-maximal inhibitory concentration (IC50) (in experiment [1]; on IDO1 enzyme) was 0.1 to 1 µM each time.
For `O=C(Nc1ccccc1)Nc1conc1/C(=N/O)Nc1ccc(F)c(Cl)c1` [Embodiment 113, (Z)-1-(4-(N-(3-chloro-4-fluorophenyl)-N′-hydroxyaminoiminomethyl)-isoxazole-3-substituted)-4-phenylurea], the IC50 (in experiment [1]; at IDO1 enzyme) was 0.1 to 1 µM each time.
For `NC1CCC(NC(=O)Nc2conc2/C(=N/O)Nc2ccc(F)c(Br)c2)CC1` (centres unmarked) [Embodiment 108], the half-inhibitory concentration (IC50) (in experiment [1]; at IDO1 enzyme) was 0.1 to 1 µM in each case.
With `O/N=C(\Nc1ccc(F)c(Br)c1)c1nonc1NC(=S)NC1CCNCC1` [Embodiment 124, (Z)-1-(4-(N-(3-bromo-4-fluorophenyl)-N′-hydroxyaminoiminomethyl)-1,2,5-oxadiazole-3-substituted)-3-(piperidine-4-substituted)thiourea], the IC50 (in experiment [1]; on IDO1 enzyme) was less than 0.001 µM throughout.
Turning to `O/N=C(\Nc1ccc(F)c(Br)c1)c1nonc1NC(=S)Nc1ccc(C(F)(F)F)cc1` [Embodiment 119, (Z)-1-(4-(N-(3-bromo-4-fluorophenyl)-N′-hydroxyaminoiminomethyl)-1,2,5-oxadiazole-3-substituted)-3-(4-trifluoromethylphenyl)thiourea], the IC50 (in experiment [1]; on IDO1 enzyme) was greater than 1 µM in each case.
On to `O=C(Nc1ccccc1)Nc1nonc1/C(=N/O)Nc1ccc(F)c(Br)c1` [Embodiment 19, (Z)-1-(4-(N-(4-bromo-3-fluorophenyl)-N′-hydroxyaminoiminomethyl)-1,2,5-oxadiazole-3-substituted)-3-phenylurea], for which the half-inhibitory concentration (IC50) (in experiment [1]; on IDO1 enzyme) was 0.1 to 1 µM in each case.
Turning to `O=C(NCCCO)Nc1nonc1/C(=N/O)Nc1ccc(F)c(Br)c1` [Embodiment 13, (Z)-1-(4-(N-(3-bromo-4-fluorophenyl)-N′-hydroxyaminoiminomethyl)-1,2,5-oxadiazole-3-substituted)-3-(3-hydroxypropane)urea], the concentration for half-maximal inhibition (IC50) (in experiment [1]; against IDO1 enzyme) was less than 0.001 µM throughout.
Regarding `N=C(Nc1nonc1/C(=N/O)Nc1ccc(F)c(Br)c1)NC1CCCC1` [Embodiment 146, (Z)-1-(4-(N-(3-bromo-4-fluorophenyl)-N′-hydroxyaminoiminomethyl)-1,2,5-oxadiazole-3-substituted)-3-cyclopentylguanidine], the IC50 (in experiment [1]; at IDO1 enzyme) was greater than 1 µM each time.
As to `O=C(Nc1cc[nH]c1)Nc1cocc1/C(=N/O)Nc1ccc(F)c(Br)c1` [Embodiment 76, (Z)-1-(4-(N-(3-bromo-4-fluorophenyl)-N′-hydroxyaminoiminomethyl)-furan-3-substituted)-3-(1H-pyrrole-3-substituted)urea], the IC50 (in experiment [1]; at IDO1 enzyme) was greater than 1 µM each time.
Take `COc1ccc(NC(=N)Nc2conc2/C(=N/O)Nc2ccc(F)c(Cl)c2)cc1` [Embodiment 154, (Z)-1-(4-(N-(3-chloro-4-fluorophenyl)-N′-hydroxyaminoiminomethyl)-isoxazole-3-substituted)-4-(4-methoxyphenyl)guanidine]: the half-maximal inhibitory concentration (IC50) (in experiment [1]; against IDO1 enzyme) was 0.1 to 1 µM each time.
Consider `COc1cccc(NC(=O)Nc2conc2/C(=N/O)Nc2ccc(F)c(Br)c2)c1` [Embodiment 101, (Z)-1-(4-(N-(3-bromo-4-fluorophenyl)-N′-hydroxyaminoiminomethyl)-isoxazole-3-substituted)-4-(3-methoxyphenyl)urea], for which the half-inhibitory concentration (IC50) (in experiment [1]; at IDO1 enzyme) was 0.1 to 1 µM throughout.
Turning to `O/N=C(\Nc1ccc(F)c(Br)c1)c1cocc1NC(=S)NC1CCCCC1` [Embodiment 138, (Z)-1-(4-(N-(3-bromo-4-fluorophenyl)-N′-hydroxyaminoiminomethyl)-furan-3-substituted)-3-cyclohexylthiourea], the concentration for half-maximal inhibition (IC50) (in experiment [1]; at IDO1 enzyme) was 0.1 to 1 µM each time.
On to `O=C(Nc1cocc1/C(=N/O)Nc1ccc(F)c(Br)c1)NC1CCNCC1` [Embodiment 64, (Z)-1-(4-(N-(3-bromo-4-fluorophenyl)-N′-hydroxyaminoiminomethyl)-furan-3-substituted)-3-(piperidine-4-substituted)urea], for which the half-maximal inhibitory concentration (IC50) (in experiment [1]; on IDO1 enzyme) was 0.1 to 1 µM in each case.
Take `O/N=C(\Nc1ccc(F)c(Br)c1)c1nonc1NC(=S)NC1CCCC1` [Embodiment 122, (Z)-1-(4-(N-(3-bromo-4-fluorophenyl)-N′-hydroxyaminoiminomethyl)-1,2,5-oxadiazole-3-substituted)-3-(cyclopentyl)thiourea]: the half-inhibitory concentration (IC50) (in experiment [1]; against IDO1 enzyme) was greater than 1 µM throughout.
Regarding `N=C(NCCCO)Nc1nonc1/C(=N/O)Nc1ccc(F)c(Br)c1` [Embodiment 151, (Z)-1-(4-(N-(3-bromo-4-fluorophenyl)-N′-hydroxyaminoiminomethyl)-1,2,5-oxadiazole-3-substituted)-3-(3-hydroxypropyl)guanidine], the concentration for half-maximal inhibition (IC50) (in experiment [1]; at IDO1 enzyme) was less than 0.001 µM in each case.
Regarding `O=C(Nc1nonc1/C(=N/O)Nc1ccc(F)c(Br)c1)NC1CCCCCC1` [Embodiment 33, (Z)-1-(4-(N-(3-bromo-4-fluorophenyl)-N′-hydroxyaminoiminomethyl)-1,2,5-oxadiazole-3-substituted)-3-cycloheptylurea], the IC50 (in experiment [1]; at IDO1 enzyme) was 0.1 to 1 µM throughout.
With `NC1CCC(NC(=O)Nc2cocc2/C(=N/O)Nc2ccc(F)c(Br)c2)CC1` (centres unmarked) [Embodiment 66, (Z)-1-(4-(N-(3-bromo-4-fluorophenyl)-N′-hydroxyaminoiminomethyl)-furan-3-substituted)-3-(4-aminocyclohexyl)urea], the IC50 (in experiment [1]; against IDO1 enzyme) was 0.1 to 1 µM in each case.
Regarding `Nc1ccc(NC(=S)Nc2nonc2/C(=N/O)Nc2ccc(F)c(Br)c2)cc1` [Embodiment 118, (Z)-1-(4-(N-(3-bromo-4-fluorophenyl)-N′-hydroxyaminoiminomethyl)-1,2,5-oxadiazole-3-substituted)-3-(4-aminophenyl)thiourea], the IC50 (in experiment [1]; against IDO1 enzyme) was less than 0.001 µM throughout.

Values taken from patent US11014895B2, “Heterocyclic urea compound, and drug composition and application thereof” (CHINA PHARMACEUTICAL UNIVERSITY, priority 2017, dated 2021).
